# Data published in patent US20230210834A1, “RNA METHYLTRANSFERASE INHIBITOR, SCREENING METHOD THEREFOR, ANTI-CANCER AGENT EFFICACY ASSESSMENT MARKER, AND KIT FOR EFFECTIVELY PREDICTING FTSJ1 INHIBITOR” (National University Corporation Okayama University, priority 2019, published 2023).
# What was measured:
# MGG23 = experiment: Sphere-forming ability (anchorage-independent cell proliferation), MGG23; format: cell-based, human; details: MGG23 (low FTSJ1 expression), 1 week, 0-5000 nM; FIG. 4B
# Method: To verify whether the expression analysis of these gene clusters contributes to predicting the anti-cancer effect by the FTSJ1 inhibitors, the FTSJ1 gene was actually used as an example to analyze the anti-cancer effect of the FTSJ1 inhibitor PVZF2001 on human malignant brain tumor cell lines. Human malignant brain tumor cell lines MGG4, MGG8, MGG18, MGG23 were treated with stem cell medium (Neurobasal, B-27, N-2, 20 ng/mL EGF, 20 ng/mL bFGF) containing different concentrations (0 nm, 200 nM, 500 nM, 1000 NM, 2000 NM, 5000 nM) of PVZF2001 for 1 week, and anchorage-independent cell proliferation was evaluated based on sphere-forming ability.
# FTSJ1 = biological target: T1, FTSJ1 (Homo sapiens, UniProt Q9UET6); experiment: Screening test: FLAG-FTSJ1 transmethylation of total RNA, SAM to SAH conversion measured with MTase-Glo luminescence; format: biochemical; details: 10 ng/reaction FLAG-FTSJ1, 1,000 ng/reaction total RNA, different concentrations; FIG. 3B
# T1 construct: made in house; host or cells: HEK293 cells stably expressing FLAG-tagged FTSJ1
# T1 sequence (Q9UET6 1-329): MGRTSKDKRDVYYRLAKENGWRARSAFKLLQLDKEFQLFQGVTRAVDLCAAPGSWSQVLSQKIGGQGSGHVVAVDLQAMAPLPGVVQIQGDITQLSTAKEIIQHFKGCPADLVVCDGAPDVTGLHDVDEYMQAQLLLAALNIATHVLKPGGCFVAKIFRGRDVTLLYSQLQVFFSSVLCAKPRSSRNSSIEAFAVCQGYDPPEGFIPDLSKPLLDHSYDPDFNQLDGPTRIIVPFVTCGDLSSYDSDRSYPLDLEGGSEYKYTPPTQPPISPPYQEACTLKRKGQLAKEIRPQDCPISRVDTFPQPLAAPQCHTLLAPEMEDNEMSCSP
# Method: HEK293 human embryonic kidney cells that constantly express FLAG-tagged FTSJ1 were produced, and from its cell lysate, FLAG-FTSJ1 was separated by adsorption using an anti-FLAG M2 antibody affinity gel (Sigma-Aldrich Co. LLC, catalog number: A2220-10ML), and eluted with FLAG peptide (Sigma-Aldrich Co. LLC, catalog number: F3290-25MG). After measuring the protein concentration in the eluate, serial dilutions were performed within the range of 0 to 20 ng/reaction to obtain enzyme dilutions of 12 different concentrations. Further, the total RNA was extracted from HEK293-FTSJ1-KO cells, in which FTSJ1 was knocked out, using TRIzol Reagent (Thermo Fisher Scientific Inc., catalog number: 15596018). […] The conversion reaction from SAM (s-adenosyl methionine) to SAH (s-adenosyl homocysteine), which occurred when FLAG-FTSJ1 in each dilution methylated 1,000 ng/reaction of the total RNA, was measured as a luciferase luminescence value using MTase-Glo Reagent in the assay kit. Taking the luminescence value at the time when FLAG-FTSJ1 was 0 ng as a background value, a graph was drawn using the numerical values obtained by subtracting the background value from the luminescence value at each dilution step. […]
# [1] = tested on: triple-negative breast cancer cell line MDA-MB-231; experiment: Anti-tumor effect evaluation test in MDA-MB-231 tumor model mice; format: in vivo, immunodeficient mice (BALB/c-nu/nu); details: 20 mg/kg intraperitoneally every other day in corn oil; FIG. 1 and 2
# Method: A cell suspension (1×10^6 cells/100 μL), in which triple-negative breast cancer cell line MDA-MB-231 was suspended in phosphate buffer (PBS, produced by FUJIFILM Wako Pure Chemical Corporation), was inoculated subcutaneously in the dorsal lumbar region of immunodeficient mice (BALB/c-nu/nu, female, 6 weeks old, purchased from Shimizu Laboratory Supplies Co., Ltd.) using a syringe with a 23 G injection needle (Terumo Corporation). After confirming that the cancer cells engrafted under the skin of the mice to form tumor tissues, and that the tumor volume reached 100 mm^3, the obtained tumor model mice were used for the following evaluation test. First, each compound for evaluation was dissolved in corn oil (produced by Sigma-Aldrich Co., LLC) and administered intraperitoneally. PVZF0024 was administered at 100 mg/kg and PVZF2001 was administered at 20 mg/kg to the tumor model mice every other day. At each administration, the tumor diameter was measured with a caliper. The tumor volume was calculated according to the following formula: V=(3.14×D×d^2)/6 (wherein V is the tumor volume, D is the tumor major axis, and d is the tumor minor axis) (Wu. et al., Clin. Cancer Res., 2013 Oct. 15; 19(20): 5699-5710).
structure (smiles),measurement,setting,value
CC(C)c1cc(C(C)C)c(S(=O)(=O)CC2CC(C)(C)CC(C)(C)C2)c(C(C)C)c1 [PVZF2001],anchorage-independent cell proliferation (sphere-forming ability),MGG23,showed cell proliferation even when treated at a concentration as high as 2000 NM
same,inhibitory effect of transmethylation by FTSJ1 (luminescence value),FTSJ1,a decrease in the luminescence value was observed in a concentration-dependent manner
same,"antitumor effect (tumor growth, tumor volume)",[1],significantly inhibit tumor growth
